Assay results from PMC7377239, “Cardiovascular Effects of Polychlorinated Biphenyls and Their Major Metabolites” (Environmental Health Perspectives, 2020).
Like-named read-outs stand apart in the source and are kept apart here.

Key:
[1] = test system: iCell endothelial cells (human iPSC-derived ECs); test: High-content imaging cytotoxicity in iCell endothelial cells, 24 h; assay type: cell-based; conditions: Homo sapiens, Endothelial cell, 24 hr; for viability at 0.1 µM / activity at 0.1 µM: 0.10 µM
Procedure, shortened: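 Human iPSC-derived endothelial cells (passages 1–5) were grown to a fibronectin-coated monolayer, then exposed 24 h at 37 °C with 0.5% DMSO vehicle. Staining was Hoechst 33342, MitoTracker Orange and calcein AM, read by high-content imaging. Point of departure came from 4-parameter logistic fits, with a 1-SD vehicle cutoff and 100 µM as the top concentration.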

[2] = test system: iCell endothelial cells (human iPSC-derived ECs); test: Tube formation (tubulogenesis) assay in iCell endothelial cells, 18 h; assay type: cell-based; conditions: Homo sapiens, Endothelial cell, 18 hr; for activity at 0.1 µM: 0.10 µM
Procedure, shortened: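 iCell ECs (passages 1–5) seeded 7,500 cells/well on reduced-growth-factor Geltrex in starvation medium, exposed overnight at 37°C to compounds in triplicate concentration–response (0.5% DMSO vehicle). Calcein AM staining, 4× imaging, angiogenesis image analysis; readouts normalized to vehicle, four-parameter logistic fit, POD at 1 SD of vehicle; 100 μM assigned NOAEL if no response.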

[3] = iPSC-EC, 0.00 µM control = 100.00, read-out: endo.cyto.24hr
[4] = iPSC-EC, 0.00 µM control = 100.00, read-out: endo.mito.24hr
[5] = iPSC-EC, 0.00 µM control = 100.00, read-out: endo.mitoint.24hr
[6] = iPSC-EC, 0.00 µM control = 100.00, read-out: endo.nma.24hr
[7] = iPSC-EC, 0.00 µM control = 100.00, read-out: endo.tc.24hrs
[8] = iPSC-EC tube formation, 0.00 µM control = 100.00, read-out: endo.mtl.18hr
[9] = iPSC-EC tube formation, 0.00 µM control = 100.00, read-out: endo.tlps.18hr
[10] = iPSC-EC tube formation, 0.00 µM control = 100.00, read-out: endo.tta.18hr
[11] = iPSC-EC tube formation, 0.00 µM control = 100.00, read-out: endo.ttl.18hr

Work on Clc1ccc(-c2ccccc2)cc1 [PCB3] yielded a viability at 0.01 µM [1, 3] of 101%, an activity at 0.01 µM [1, 4] of 101% and an activity at 0.01 µM [1, 5] of 126%. For the same molecule, the activity at 0.01 µM [1, 6] was 97.7%, the viability at 0.01 µM [1, 7] was 101% and the viability at 0.1 µM [1, 3] was 100%. It also gave an activity at 0.1 µM [1, 4] of 101%, an activity at 0.1 µM [1, 5] of 109% and an activity at 0.1 µM [1, 6] of 98%. For the same molecule, the viability at 0.1 µM [1, 7] was 100%, the viability at 1 µM [1, 3] was 107% and the activity at 1 µM [1, 4] was 107%. It also gave an activity at 1 µM [1, 5] of 104%, an activity at 1 µM [1, 6] of 95.8% and a viability at 1 µM [1, 7] of 107%. The viability at 10 µM [1, 3] was 106%, the activity at 10 µM [1, 4] was 105% and the activity at 10 µM [1, 5] was 100%. For the same molecule, the activity at 10 µM [1, 6] was 94.8%, the viability at 10 µM [1, 7] was 106% and the viability at 100 µM [1, 3] was 105%. The activity at 100 µM [1, 4] was 106%, the activity at 100 µM [1, 5] was 102% and the activity at 100 µM [1, 6] was 95.7%. It also gave a viability at 100 µM [1, 7] of 105%, a minimal effective concentration ([1]; iPSC-EC, top concentration 100.00 µM, read-out: endo.cyto.24hr POD) of 100 µM and a minimal effective concentration ([1]; iPSC-EC, top concentration 100.00 µM, read-out: endo.mito.24hr POD) of 100 µM. The minimal effective concentration ([1]; iPSC-EC, top concentration 100.00 µM, read-out: endo.mitoint.24hr POD) was 100 µM, the minimal effective concentration ([1]; iPSC-EC, top concentration 100.00 µM, read-out: endo.nma.24hr POD) was 100 µM and the minimal effective concentration ([1]; iPSC-EC, top concentration 100.00 µM, read-out: endo.tc.24hrs POD) was 100 µM. It also gave an activity at 0.01 µM [2, 8] of 114%, an activity at 0.01 µM [2, 9] of 108% and an activity at 0.01 µM [2, 10] of 123%. The activity at 0.01 µM [2, 11] was 120%, the activity at 0.1 µM [2, 8] was 106% and the activity at 0.1 µM [2, 9] was 111%. It also gave an activity at 0.1 µM [2, 10] of 102%, an activity at 0.1 µM [2, 11] of 98.7% and an activity at 1 µM [2, 8] of 119%. For the same molecule, the activity at 1 µM [2, 9] was 171%, the activity at 1 µM [2, 10] was 126% and the activity at 1 µM [2, 11] was 123%. The activity at 10 µM [2, 8] was 118%, the activity at 10 µM [2, 9] was 103% and the activity at 10 µM [2, 10] was 109%. For the same molecule, the activity at 10 µM [2, 11] was 111%, the activity at 100 µM [2, 8] was 107% and the activity at 100 µM [2, 9] was 113%. For the same molecule, the activity at 100 µM [2, 10] was 93.3%, the activity at 100 µM [2, 11] was 95.4% and the minimal effective concentration ([2]; iPSC-EC tube formation, top concentration 100.00 µM, read-out: endo.mtl.18hr POD) was 100 µM. The minimal effective concentration ([2]; iPSC-EC tube formation, top concentration 100.00 µM, read-out: endo.tlps.18hr POD) was 100 µM, the minimal effective concentration ([2]; iPSC-EC tube formation, top concentration 100.00 µM, read-out: endo.tta.18hr POD) was 100 µM and the minimal effective concentration ([2]; iPSC-EC tube formation, top concentration 100.00 µM, read-out: endo.ttl.18hr POD) was 100 µM.
Molecule Oc1cc(Cl)cc(-c2cccc(Cl)c2)c1 [5-OH-PCB 11] has a minimal effective concentration ([1]; endothelial cells (endo), cyto, read-out: POD endo.cyto.24hr) of 42.3 µM, a minimal effective concentration ([1]; endothelial cells (endo), mito, read-out: POD endo.mito.24hr) of 42.3 µM and a minimal effective concentration ([1]; endothelial cells (endo), mitoint, read-out: POD endo.mitoint.24hr) of 55 µM. It also gave a minimal effective concentration ([1]; endothelial cells (endo), nma, read-out: POD endo.nma.24hr) of 14.2 µM, a minimal effective concentration ([1]; endothelial cells (endo), tc, read-out: POD endo.tc.24hr) of 43.2 µM and a minimal effective concentration ([2]; endothelial cells (endo), tube formation mtl, read-out: POD endo.mtl.18hr) of 5.28 µM. The minimal effective concentration ([2]; endothelial cells (endo), tube formation tlps, read-out: POD endo.tlps.18hr) was 5.71 µM, the minimal effective concentration ([2]; endothelial cells (endo), tube formation tta, read-out: POD endo.tta.18hr) was 6.97 µM and the minimal effective concentration ([2]; endothelial cells (endo), tube formation ttl, read-out: POD endo.ttl.18hr) was 7.34 µM.
